Experimental data: patent publication US11926634B2, “Processes for the preparation of selective estrogen receptor degraders” (Eli Lilly and Company, priority 2022, dated 2024)

Biological target: T1, hERα (Homo sapiens, UniProt P03372)
T1 construct: ERα degradation High Content Imaging assays in MCF7 ESR1 Wild Type cells; endogenous in cells; host or cells: MCF7 (ESR1 wild type)
T1 sequence (P03372 1-595): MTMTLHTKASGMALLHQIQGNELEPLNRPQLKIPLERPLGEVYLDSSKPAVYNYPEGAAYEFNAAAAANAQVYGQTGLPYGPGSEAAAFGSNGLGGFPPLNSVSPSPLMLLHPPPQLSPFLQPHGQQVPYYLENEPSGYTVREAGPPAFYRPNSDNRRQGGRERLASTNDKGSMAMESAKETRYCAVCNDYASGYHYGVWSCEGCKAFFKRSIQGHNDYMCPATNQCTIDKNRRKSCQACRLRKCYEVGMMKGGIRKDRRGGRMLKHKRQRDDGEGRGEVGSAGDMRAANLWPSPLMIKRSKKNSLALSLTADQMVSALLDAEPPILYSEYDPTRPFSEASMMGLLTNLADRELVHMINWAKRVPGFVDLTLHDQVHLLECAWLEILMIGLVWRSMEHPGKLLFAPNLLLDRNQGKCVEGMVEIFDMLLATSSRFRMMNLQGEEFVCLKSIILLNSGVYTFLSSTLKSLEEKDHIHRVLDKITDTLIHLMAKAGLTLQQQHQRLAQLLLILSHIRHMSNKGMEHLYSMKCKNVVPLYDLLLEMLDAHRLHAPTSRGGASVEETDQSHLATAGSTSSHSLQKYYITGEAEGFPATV
Test: ERα degradation high content imaging assay in MCF7 cells
Assay type: cell-based
Settings: MCF7 ESR1 Wild Type cells; output % estrogen receptor positive cells; read-out: Relative IC50 (μM), hERα Degradation Cell Assay in MCF7 Cells
Method: Cells were fixed by adding 14% paraformaldehyde (10 μL) for 30 min at RT. The cells were washed once with PBS (20 μL) and incubated with PBS (20 μL per well) containing 0.5% (v/v) TWEEN® 20 for 1 h. Cells were washed with PBS containing 0.05% TWEEN® 20 (2×) and blocked with 3% BSA in PBS containing 0.05% TWEEN® and 0.1% TRITON™ X-100 (20 μL/well) for 1 h at RT. A 1:500 dilution of Primary antibody (20 μL) (ERα (Clone SP1) monoclonal rabbit antibody #RM-9101-S, Thermo Scientific) in 1% BSA in PBS containing 0.05% TWEEN® 20 was added, the plates were sealed and incubated overnight at 4° C. The following day the cells were washed with PBS containing 0.05% TWEEN® 20 (2×) and incubated with secondary antibody ([…]) (1:1000 dilution, Goat anti-rabbit IgM ALEXA FLUOR™ 488) in PBS 1% BSA for 105 min at RT. After incubation plates were washed with PBS (2×20 μL), and PBS (20 μL) containing RNase (Sigma) (50 μg/mL) and 1:1000 propidium iodide dilution was added per well. Plates were sealed and incubated 1 h at RT (preserved from light). The plates were scanned with ACUMEN EXPLORER™ [Laser-scanning fluorescence microplate cytometer manufactured by TTP LABTECH LTD] to measure ERa. Image analysis was based on cellular fluorescent signals for identifying positive cells. Estrogen receptor positive cells were identified by mean intensity. Total intensity at 575-640 nm from propidium iodide/DNA was used to identify individual cells. Assay output was % estrogen receptor positive cells. The IC50 was determine by curve fitting to a four-parameter logistic for each output using GENE DATA™. Raw data (FLU) were plotted as nonlinear regression through […]© tool. Data was analyzed using a 4-parameter nonlinear logistic equation (four-parameter logistic concentration-response curve): Y=bot+[(top-bot)/1+(x/IC50) slope] where Y=% inhibition, x=concentration yielding y % inhibition, Bottom=minimum value of y attained by curve, Top=maximum value of y attained by curve and Slope=steepness of curve at IC50. % Inh=[(median Max−x/median Max−median Min)]×100.

DC50 [µM] | IC50 [µM] | Compound
> 2 | – | CCOC(COc1ccc(C2Oc3cc(C(F)(F)F)ccc3-c3cnc4cc(O)ccc4c32)cc1)OCC (stereo not shown)
– | 0.00216 | O=C(c1ccc(OCCN2CC(CF)C2)cc1)c1c(-c2ccc(C(F)(F)F)cc2F)cnc2cc(O)ccc12
0.126 ± 0.0442 | – | O=C(c1ccc(OCCN2CC(CF)C2)cc1)c1c(Cl)cnc2cc(O)ccc12
> 2 | – | CCOC(COc1ccc(C(=O)c2c(-c3ccc(C(F)(F)F)cc3F)cnc3cc(O)ccc23)cc1)OCC
> 2 | – | CCOC(COc1ccc(C(O)c2c(-c3ccc(C(F)(F)F)cc3F)cnc3cc(O)ccc23)cc1)OCC (stereo not shown)
0.278 ± 0.126 | – | Oc1ccc2c(C(O)c3ccc(OCCN4CC(CF)C4)cc3)c(-c3ccc(C(F)(F)F)cc3F)cnc2c1 (stereo not shown)
> 2 | – | O=CCOc1ccc(C2Oc3cc(C(F)(F)F)ccc3-c3cnc4cc(O)ccc4c32)cc1 (stereo not shown)
